Measurements as given in patent US8722703B2, “Fused amino pyridines for the treatment of brain tumors” (Curis, Inc., priority 2009, dated 2014).

Key:
[1] = system: Colo205 colorectal cancer s.c. tumor; experiment: Efficacy study in the Colo205 s.c. tumor model; type: in vivo, nude mice; conditions: 120 mg/kg orally q2d
H1975 NSCLC s.c. tumor = experiment: Efficacy study in the H1975 s.c. tumor model (160 mg/kg q2d); type: in vivo, nude mice; conditions: 160 mg/kg orally q2d, 3 wk
Description: H1975 NSCLC cells (5×10^6) were implanted s.c. into nude mice. Treatment with Compound-15 (160 mg/kg, orally, q2d) started when tumors reached an average volume of 160 mm^3.

H1975 NSCLC cells = experiment: Western blot of H1975 NSCLC cells after short-term treatment; type: cell-based; conditions: 1 μmol/L for 7 hours
[2] = system: H1975 orthotopic lung tumor; experiment: Efficacy study in the H1975 orthotopic lung tumor (NSCLC) model; type: in vivo, nude mice
Description: Dose-dependent efficacy study of Compound-15 in H1975 orthotopic lung tumor model (n=11): Mice were treated with Compound-15 (20, 40, 80, and 120 mg/kg) starting 4 day after tumor implantation.

[3] = system: HSP90 client proteins in H1975 subcutaneous tumors; experiment: Pharmacodynamic study in H1975 subcutaneous tumors, single dose; type: in vivo; conditions: single dose 160 mg/kg
[4] = PK profile of compound 15 after oral 30 mg/kg, single dose study; type: in vivo, mice; conditions: female, athymic nude (CD-1 nu/nu), mouse, plasma
Description: Female athymic nude (CD-1 nu/nu) were obtained from Charles River Laboratories (Wilmington, Mass.). They were housed in ventilated micro-isolator cages in Curis animal facility conditioned at temperature of 23±1° C., humidity of 50-70%, and a 12-hour light/12-hour dark cycle. The animals were fed with irradiated laboratory rodent diet ad libitum and provided with sterilized water. […] The cell pellet was diluted in HBSS (Hank's balanced salt solution) for implantation. […] The concentration for each compound in the solution was kept below 5 mg/ml. The maximum number of compound in one cassette was 6.30% Captisol (Cydex) was used for all formulation. At various time points (3 mice per time point) following compound administration, mice were euthanized with CO2, blood and tissues were collected. Blood was collected into tubes containing sodium heparin. The plasma was separated via centrifugation and stored at −40° C. before analysis. Tissues including tumors were homogenized in 0.8 ml water. An internal standard was added into the tissue homogenates. The homogenates were extracted with 1 ml ethyl acetate for three times. After evaporation, the residual was reconstituted in 0.1 ml acetonitrile for LC/MS/MS assay (Agilent HPLC 1100 Series).

MV4-11 AML s.c. tumor = experiment: Efficacy study in MV4-11 s.c. tumor model; type: in vivo, sever combined immunodeficient mice; conditions: 160 mg/kg orally q2d, three weeks, pretreatment volume 146 mm^3
Excerpt: In an efficacy study using MV4-11 s.c. tumor model (n=8), MV4-11 AML tumor cells (20×10^6) were implanted s.c. into sever combined immunodeficient mice.

H1975 intracranial tumor = experiment: Efficacy study in H1975 intracranial metastasis model; type: in vivo, nude mice; conditions: Compound-15 120 mg/kg orally once every two days, lapatinib 75 mg/kg orally twice a day, 4 wk
H1993 NSCLC cells = experiment: Western blot of H1993 NSCLC cells after short-term treatment; type: cell-based; conditions: 1 μmol/L for 7 hours
[5] = Mouse brain concentrations after oral 30 mg/Kg in nude mice with U87MG xenografts; type: in vivo
[6] = system: A549 orthotopic lung tumor; experiment: Efficacy study in A549 orthotopic lung tumor model; type: in vivo, nude mice; conditions: Compound-15 120 mg/kg orally once every two days, erlotinib 50 mg/kg orally once a day, 4 wk
H1975 subcutaneous tumor = experiment: Efficacy study in the H1975 subcutaneous tumor model (80, 120, 160 mg/kg); type: in vivo, nude mice; conditions: H1975 s.c., 80, 120, or 160 mg/kg orally once every 2 days
Excerpt: Cells (3.5×106) were implanted subcutaneously into nude mice.

[7] = system: cancer derived HSP90 complex (H1975 NSCLC cell extracts); experiment: Fluorescence polarization geldanamycin competition binding with H1975 cell extract
A549 subcutaneous tumors = experiment: Pharmacodynamic study in K-ras-mutated A549 subcutaneous tumors; type: in vivo; conditions: 160 mg/kg, 6- and 24-h time points
[8] = system: cancer derived HSP90 complex (H1993 NSCLC cell extracts); experiment: Fluorescence polarization geldanamycin competition binding with H1993 cell extract
A549 subcutaneous tumor = experiment: Efficacy study in A549 subcutaneous tumor model; type: in vivo, nude mice; conditions: A549 s.c., 160 mg/kg orally once every two days
[9] = system: H1975 orthotopic lung tumors; experiment: Pharmacodynamic study in H1975 orthotopic lung tumors; type: in vivo; conditions: 160 mg/kg once
Excerpt: Tumors were collected at various time points (n=2-3) and subjected to Western blot analysis.

[10] = system: MDA-MB-468 breast cancer orthotopic tumor; experiment: Efficacy study in the MDA-MB-468 orthotopic tumor model; type: in vivo, nude mice; conditions: Compound-15 120 mg/kg orally q2d, paclitaxel 12.5 mg/kg i.p. twice weekly
[11] = system: H1975 (NSCLC) s.c. tumors; experiment: PD study after single oral dosing in H1975 (NSCLC) s.c. tumors; type: in vivo; conditions: single oral dosing 80 mg/kg, 8 h
[12] = system: HSP90 client proteins in U87MG s.c. tumors; experiment: Pharmacodynamic Western blot analysis of U87MG s.c. tumors; type: in vivo, nude mice; conditions: U87MG s.c. tumors, 40, 80 or 160 mg/kg oral every other day, 21 days
[13] = then compound-free medium 0, 17 or 24 hours

CN(C)c1cc2c(cc1Sc1nc3c(N)nccc3n1CCNCC(C)(C)C)OCO2 [Compound 15, 2-(6-(dimethylamino)benzo[d][1,3]dioxol-5-ylthio)-1-(2-(neopentylamino)ethyl)-1H-imidazo[4,5-c]pyridin-4-amine]
T/C [1]: 14.2% | T/C (H1975 NSCLC s.c. tumor): 15.4% | downstream PI3K/AKT and RAF/ERK signaling (p-AKT/AKT, p-ERK/ERK levels) (H1975 NSCLC cells): suppressed | levels of phosphorylated-MET and total MET (H1975 NSCLC cells): reduced | phosphorylated and total EGFR, MET, AKT, and MAPK (ERK) (H1975 NSCLC cells; [13]): durably inhibited | animal survival, dose dependence ([2]; 20, 40, 80, and 120 mg/kg, 5-wk dosing regimen): dose-dependently extended animal survival | animal survival ([2]; Compound-15 120 mg/kg orally once every two days, erlotinib 50 mg/kg orally once a day, 5 wk): significantly prolonged animal survival | HSP70, a marker of HSP90 inhibition [3]: concurrent induction | HSP90 client proteins in tumors [3]: potent inhibition | mutant EGFR [3]: induced degradation | apoptosis (PARP and caspase-3 cleavages) ([3]; 6- and 24-hour time points): robustly induced apoptosis | AUC(0-inf) [4]: 10500 ng·h/mL | Cmax [4]: 1380 ng/mL | Tmax [4]: 2 h | half-life [4]: 3.3 h | AUC(0-t) ([4]; read-out: AUC0-24): 10400 ng·h/mL | tumor regression (MV4-11 AML s.c. tumor): complete tumor regression | animal survival (H1975 intracranial tumor): significantly prolonged animal survival | downstream PI3K/AKT and RAF/ERK signaling (p-AKT/AKT, p-ERK/ERK levels) (H1993 NSCLC cells): suppressed | levels of phosphorylated-MET and total MET (H1993 NSCLC cells): reduced | phosphorylated and total EGFR, MET, AKT, and MAPK (ERK) (H1993 NSCLC cells; [13]): durably inhibited | concentration at 0 hr ([5]; female, athymic nude (CD-1 nu/nu), mouse, brain, oral (30 mg/Kg) delivery, U87MG xenografts, Time 0 hr, read-out: HSP90 Compounds in Mouse Brain): 0 ng/g | concentration at 0.5 hr ([5]; female, athymic nude (CD-1 nu/nu), mouse, brain, oral (30 mg/Kg) delivery, U87MG xenografts, Time 0.5 hr, read-out: HSP90 Compounds in Mouse Brain): 66.4 ng/g | concentration at 1 hr ([5]; female, athymic nude (CD-1 nu/nu), mouse, brain, oral (30 mg/Kg) delivery, U87MG xenografts, Time 1 hr, read-out: HSP90 Compounds in Mouse Brain): 124 ng/g | concentration at 3 hr ([5]; female, athymic nude (CD-1 nu/nu), mouse, brain, oral (30 mg/Kg) delivery, U87MG xenografts, Time 3 hr, read-out: HSP90 Compounds in Mouse Brain): 257 ng/g | concentration at 6 hr ([5]; female, athymic nude (CD-1 nu/nu), mouse, brain, oral (30 mg/Kg) delivery, U87MG xenografts, Time 6 hr, read-out: HSP90 Compounds in Mouse Brain): 77.8 ng/g | concentration at 24 hr ([5]; female, athymic nude (CD-1 nu/nu), mouse, brain, oral (30 mg/Kg) delivery, U87MG xenografts, Time 24 hr, read-out: HSP90 Compounds in Mouse Brain): 3.2 ng/g | crossing (into brain) ([5]; nude mice with U87MG xenografts, oral 30 mg/Kg): superior results | AUC in mouse brain ([5]; oral (30 mg/Kg) delivery, U87MG xenografts): 1692.2 ng·h/g | animal survival [6]: significantly prolonged animal survival | body weight (H1975 subcutaneous tumor): without significant loss | tumor growth (H1975 subcutaneous tumor): Dose-dependent inhibition | IC50 [7]: 61.2 nM | HER2 and key components of the PI3K/AKT and RAF/MEK/ERK signaling pathways (Western blot) (A549 subcutaneous tumors): Potent inhibition | HSP70 (Western blot) (A549 subcutaneous tumors): concurrent induction | IC50 [8]: 74.2 nM | T/C (A549 subcutaneous tumor): 9.5% | tumor growth (A549 subcutaneous tumor): Tumor stasis | HSP70, apoptosis and phosphorylated-AKT in tumors (Western blot) [9]: Sustained induction of HSP70 and apoptosis and inhibition of oncoprotein phosphorylated-AKT | tumor regression [10]: 3.4% | EGFR and signaling molecules in tumors (Western blot) [11]: inhibited | HSP90 client proteins in tumors (Western blot) [12]: dose-dependent inhibition
